The results in this text go back to patent US9750249B2, “Synergistic paraffinic oil and boscalid fungicides” (priority 2010, dated 2017).

For the experiment, the system named is dollar spot. Description: Field trial: dollar spot counts on putting-green plots. The class given is in vivo, Sclerotinia homoeocarpa. The conditions noted are these: Table 2a; combination even with half the recommended application rate of boscalid. From the text:
Studies were established in a completely randomized design with three replications. The treatments included an untreated (fertilizer only) treatment and twenty-three rate/interval combinations of Civitas™ and Emerald™. The label-recommended rates of Civitas™ application to control dollar spot on turfgrass are 8-32 oz/1000 sq.ft. The label-recommended rate of Emerald™ application to control dollar spot on turfgrass is 0.13 oz/1000 sq.ft.
Initial treatments were made on June 16 and continued for 15 weeks (final treatments were made on September 27). […]
Precipitation was such that supplemental irrigation was not required on a regular basis. […] Treatment differences at individual measurement events were evaluated using analysis of variance and Fisher's protected least significant difference (LSD). […]
Applying the approach to identifying synergy as set out in S. R. Colby, “Calculating synergistic and antagonistic responses of herbicide combinations”, Weeds 15, 20-22 (1967), expected efficacy, E, may be expressed as: E=X+Y(100−X)/100, where X is the efficacy, expressed in % of the untreated control, of the first composition (boscalid), and Y is the efficacy, expressed in % of the untreated control, of the second composition (Civitas).

With `O=C(Nc1ccccc1-c1ccc(Cl)cc1)c1cccnc1Cl` [boscalid, 2-chloro-N-(4′-chloro[1,1′-biphenyl]-2-yl)-nicotinamide], the “sustained elimination of dollar spot” value was “neither boscalid alone nor CIVITAS alone are capable of sustained elimination of dollar spot”.
